Positions count from the first letter of the chain named.
What was measured:
Assay in all cases: HPLC forward-reaction glutamine synthetase assay with serine protease inhibitors
Assay type in all cases: biochemical, E. coli
[1] = molecular target: T1, glutamine synthetase mutant S53A (Escherichia coli, UniProt P0A9C5, S54A); details: 1 mM inhibitor; for inhibition of the enzyme (in words): HPLC assays; for % Reduction in ADP-based Specific Activity / % Reduction in Glutamine-based Specific Activity: 60 min pre-incubation, vs no-inhibitor control, positive = activity increased; for % Conversion: glutamine-based divided by ADP-based specific activity
T1 construct: made in house; host or cells: E. coli YMC11 (glutamine synthetase auxotroph), pBluescript II SK+
T1 sequence (P0A9C5 2-469 S54A limits assumed): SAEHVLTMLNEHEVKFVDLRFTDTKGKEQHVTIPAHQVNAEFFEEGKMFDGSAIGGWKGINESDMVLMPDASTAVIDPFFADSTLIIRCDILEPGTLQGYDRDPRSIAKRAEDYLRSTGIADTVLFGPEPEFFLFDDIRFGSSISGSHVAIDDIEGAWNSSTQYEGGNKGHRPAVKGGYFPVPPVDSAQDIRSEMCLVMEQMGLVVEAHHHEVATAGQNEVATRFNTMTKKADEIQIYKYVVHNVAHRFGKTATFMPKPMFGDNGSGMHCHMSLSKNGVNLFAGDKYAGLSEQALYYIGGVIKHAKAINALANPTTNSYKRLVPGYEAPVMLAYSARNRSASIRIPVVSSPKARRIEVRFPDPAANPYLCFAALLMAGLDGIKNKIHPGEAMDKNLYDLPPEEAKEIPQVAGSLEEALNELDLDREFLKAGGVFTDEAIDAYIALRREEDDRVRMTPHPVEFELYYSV
Method: (§1) This assay was set up to measure glutamine synthetase activity according to the forward reaction, and measures the amount of glutamine formed from […] of L-glutamate in the presence of MnCO3-ATP (the basis of one reaction) and MgATP (the basis of a second reaction). In addition, the amount of ADP formed is also measured in a separate assay, using the same reagents.
(§2) All enzyme preparations were adjusted to the same concentration of protein, and added to the assay mixture in a volume of 50 μl. The addition of the enzyme started the reaction, which was then allowed to proceed for 1 hour. The reaction was stopped by the addition of 6 μl of a 50% solution of trichloroacetic acid. Each assay was then aliquoted into 4 HPLC vials (150 μl per vial), two of which were assayed for glutamate and glutamine using a Phenomenex Luna 5 μC18 Column on an Agilent 100 HPLC instrument. The ATP/ADP assays were run on a Chromolith Performance RP-18c column also using an Agilent 100 HPLC instrument.
(§3) As it is believed that two putative catalytic triads, similar to those in the serine proteases, are involved in the reaction mechanism of glutamine synthetase, certain of the mutants were also assayed by HPLC in the presence of the serine protease inhibitors, AEBSF and PMSF, in order to assess the effect that these inhibitors had on the enzyme. The enzymes assessed were the adenylylated WT enzyme, the deadenylylated WT enzyme, and the mutant enzymes S52A, S52A Y397V, S53A, S53A Y397V, S52A S53A and S52A S53A Y397V. The enzymes were pre-incubated for 60 minutes in the presence of 1 mM PMSF or 1 mM AEBSF. A control reaction was set up for each enzyme, which contained no inhibitor. Each enzyme was then added to assays set up as described above. The assay was allowed to proceed for 60 minutes, then stopped by the addition of […] of 50% TCA, after which they were analysed by HPLC. All assays were run in triplicate.
(§4) In addition to the γ-glutamyl transferase assays, assays were also developed to measure the rate of conversion of ATP and glutamate to ADP and glutamine by HPLC. These were set up as single assays but analysed separately for glutamate and glutamine and ATP and ADP. The conversion rates for glutamate to glutamine, in both the presence of Mn^2+ and Mg^2+ by glutamine synthetase, is referred to as the […] specific activity and is presented in μmoles/min/mg protein. The conversion rates for ATP to ADP, in both the presence of Mn^2+ and Mg^2+ by glutamine synthetase, is referred to as the ADP-based specific activity and is presented in μmoles/min/mg protein. The percentage of conversion was also calculated by dividing the glutamine-based specific activity by the ADP-based specific activity, and this value is interpreted as the ability of the enzyme to complete both steps of the reaction, i.e., glutamate to glutamine and ATP to ADP, at an equivalent level of efficiency.

[2] = molecular target: T2, glutamine synthetase mutant S53A Y397V (Escherichia coli, UniProt P0A9C5, S54A/Y398V); details: 1 mM inhibitor; for % Reduction in ADP-based Specific Activity / % Reduction in Glutamine-based Specific Activity: 60 min pre-incubation, vs no-inhibitor control, positive = activity increased; for % Conversion: glutamine-based divided by ADP-based specific activity
T2 construct: made in house; host or cells: E. coli YMC11 (glutamine synthetase auxotroph), pBluescript II SK+
T2 sequence (P0A9C5 2-469 S54A/Y398V limits assumed): T1 sequence (P0A9C5 2-469 S54A limits assumed) with Y397V
Method: as §1, §2, §3, §4

[3] = molecular target: T3, glutamine synthetase mutant S52A (Escherichia coli, UniProt P0A9C5, S53A); details: 1 mM inhibitor; for inhibition of the enzyme (in words): HPLC assays; for % Reduction in ADP-based Specific Activity / % Reduction in Glutamine-based Specific Activity: 60 min pre-incubation, vs no-inhibitor control, positive = activity increased; for % Conversion: glutamine-based divided by ADP-based specific activity
T3 construct: made in house; host or cells: E. coli YMC11 (glutamine synthetase auxotroph), pBluescript II SK+
T3 sequence (P0A9C5 2-469 S53A limits assumed): T1 sequence (P0A9C5 2-469 S54A limits assumed) with S52A, A53S
Method: as §1, §2, §3, §4

| SMILES | inhibition of the enzyme (in words) [1] | % Reduction in ADP-based Specific Activity ([1]; Mg assay) [%] | % Reduction in Glutamine-based Specific Activity ([1]; Mg assay) | % Conversion ([1]; Mg assay) [%] | % Reduction in ADP-based Specific Activity ([1]; Mn assay) | % Reduction in Glutamine-based Specific Activity ([1]; Mn assay) [%] | % Conversion ([1]; Mn assay) [%] | % Reduction in ADP-based Specific Activity ([2]; Mn assay) | % Reduction in Glutamine-based Specific Activity ([2]; Mn assay) | % Conversion ([2]; Mn assay) [%] | inhibition of the enzyme (in words) [3] | % Reduction in ADP-based Specific Activity ([3]; Mg assay) [%] | % Reduction in Glutamine-based Specific Activity ([3]; Mg assay) [%] | % Conversion ([3]; Mg assay) [%] | % Reduction in ADP-based Specific Activity ([3]; Mn assay) | % Reduction in Glutamine-based Specific Activity ([3]; Mn assay) | % Conversion ([3]; Mn assay) [%] | inhibition of the enzyme (in words) ([2]; HPLC assays) | % Reduction in ADP-based Specific Activity ([2]; Mg assay) [%] | % Reduction in Glutamine-based Specific Activity ([2]; Mg assay) [%] |
| --- | --- | --- | --- | --- | --- | --- | --- | --- | --- | --- | --- | --- | --- | --- | --- | --- | --- | --- | --- | --- |
| O=S(=O)(F)Cc1ccccc1 [PMSF] | found to inhibit | −17.31 | +6.90% | 66 | +46.95% | −22.73 | 61 | +39.67% | +6.07% | 63 | found to inhibit | −19.51 | −43.54 | 59 | −13.41% | −39.84% | 64 | – | – | – |
| NCCc1ccc(S(=O)(=O)F)cc1 [AEBSF] | appeared to cause inhibition | −39.50 | −1.70% | 83 | −15.43% | −15.19 | 115 | +14.80% | +5.16% | 75 | appeared to cause inhibition | −31.77 | −10.61 | 109 | +30.66% | +15.27% | 81 | appeared to cause inhibition | −100.00 | −55.60 |

Reference: US20100022584A1, “Modulation of Glutamine Synthetase Activity” (priority 2006, published 2010)
